According to ChEMBL document CHEMBL6127107, “Oleanolic acid derivatives against drug-resistant bacteria and fungi by multi-targets to avoid drug resistance” (Eur J Med Chem, 2024):
Values after ≈ are worked out from the molar mass of the structure shown.

Assays:
[1] = Hemolytic activity against Mianyang red blood cells (unknown origin); assay type: toxicity, cell-based, RBC
Escherichia coli = assay: Antimicrobial activity against Escherichia coli; assay type: functional
Staphylococcus aureus [2] = assay: Antimicrobial activity against methicillin-resistant Staphylococcus aureus 003; assay type: functional
Staphylococcus aureus [3] = assay: Antimicrobial activity against Staphylococcus aureus 31; assay type: functional
Staphylococcus aureus [4] = assay: Antimicrobial activity against Staphylococcus aureus 29; assay type: functional
Pseudomonas aeruginosa = assay: Antimicrobial activity against Pseudomonas aeruginosa; assay type: functional
[5] = Selectivity index, ratio of HC50 for hemolytic activity against Mianyang red blood cells (unknown origin) to MIC for antimicrobial activity against methicillin resistant Staphylococcus aureus 003; assay type: toxicity, cell-based, RBC; conditions: read-out: Selectivity Index
Staphylococcus aureus [6] = assay: Antimicrobial activity against Staphylococcus aureus 10; assay type: functional
Candida albicans = assay: Antimicrobial activity against fluconazole-resistant Candida albicans; assay type: functional
Enterococcus faecalis = assay: Antimicrobial activity against vancomycin resistant Enterococcus faecalis ATCC 51299; assay type: functional
Staphylococcus aureus [7] = assay: Antimicrobial activity against methicillin-resistant Staphylococcus aureus 011; assay type: functional

Structure (SMILES) | HC50 [1] | MIC (Escherichia coli) | MIC (Staphylococcus aureus [2]) | MIC (Staphylococcus aureus [3]) | MIC (Staphylococcus aureus [4]) | MIC (Pseudomonas aeruginosa) | selectivity ratio [5] | MIC (Staphylococcus aureus [6]) | MIC (Candida albicans) | MIC (Enterococcus faecalis) | MIC (Staphylococcus aureus [7])
CC1(C)CC[C@]2(C(=O)O)CC[C@]3(C)C(=CC[C@@H]4[C@@]5(C)CC[C@H](OCC(O)CCCCN)C(C)(C)[C@@H]5CC[C@]43C)[C@@H]2C1 (some centres undefined) | 26.1 µg/mL | > 64 µg/mL | 4 µg/mL (≈ 6.99 µM) | 8 µg/mL (≈ 14 µM) | 4 µg/mL (≈ 6.99 µM) | > 64 µg/mL | 6.54 | 4 µg/mL (≈ 6.99 µM) | 16 µg/mL (≈ 28 µM) | 8 µg/mL (≈ 14 µM) | 4 µg/mL (≈ 6.99 µM)
CC(=O)O[C@H]1CC[C@]2(C)[C@H]3CC=C4[C@@H]5CC(C)(C)CC[C@]5(C(=O)NCCCCCCCCNC(=N)N)CC[C@@]4(C)[C@]3(C)CC[C@H]2C1(C)C | 232 µg/mL | > 64 µg/mL | 4 µg/mL (≈ 6 µM) | 16 µg/mL (≈ 24 µM) | 4 µg/mL (≈ 6 µM) | > 64 µg/mL | 57.9 | 4 µg/mL (≈ 6 µM) | 16 µg/mL (≈ 24 µM) | 8 µg/mL (≈ 12 µM) | 2 µg/mL (≈ 3 µM)
CC(=O)O[C@H]1CC[C@]2(C)[C@H]3CC=C4[C@@H]5CC(C)(C)CC[C@]5(C(=O)NCCCCCCCCN)CC[C@@]4(C)[C@]3(C)CC[C@H]2C1(C)C | 40.2 µg/mL | > 64 µg/mL | 8 µg/mL (≈ 12.8 µM) | 32 µg/mL (≈ 51.2 µM) | 8 µg/mL (≈ 12.8 µM) | > 64 µg/mL | 7.53 | 8 µg/mL (≈ 12.8 µM) | 64 µg/mL (≈ 102 µM) | 16 µg/mL (≈ 25.6 µM) | 4 µg/mL (≈ 6.4 µM)
CC1(C)S[C@@H]2[C@H](NC(=O)[C@H](N)c3ccccc3)C(=O)N2[C@H]1C(=O)O [AMPICILLIN] | > 256 µg/mL |  | > 128 µg/mL | 2 µg/mL (≈ 5.72 µM) | 2 µg/mL (≈ 5.72 µM) |  |  | 2 µg/mL (≈ 5.72 µM) |  | 2 µg/mL (≈ 5.72 µM) | > 128 µg/mL
CC1(C)CC[C@]2(C(=O)O)CC[C@]3(C)C(=CC[C@@H]4[C@@]5(C)CC[C@H](O)C(C)(C)[C@@H]5CC[C@]43C)[C@@H]2C1 [OLEANOLIC_ACID] | > 1020 µg/mL |  | 64 µg/mL (≈ 140 µM) | 32 µg/mL (≈ 70.1 µM) | 64 µg/mL (≈ 140 µM) |  | > 16 | 64 µg/mL (≈ 140 µM) | > 64 µg/mL | 64 µg/mL (≈ 140 µM) | > 64 µg/mL
CC(=O)O[C@H]1CC[C@]2(C)[C@H]3CC=C4[C@@H]5CC(C)(C)CC[C@]5(C(=O)NCCCN)CC[C@@]4(C)[C@]3(C)CC[C@H]2C1(C)C | 78.5 µg/mL | > 64 µg/mL | 2 µg/mL (≈ 3.6 µM) | 8 µg/mL (≈ 14.4 µM) | 4 µg/mL (≈ 7.21 µM) | > 64 µg/mL | 39.2 | 4 µg/mL (≈ 7.21 µM) | 2 µg/mL (≈ 3.6 µM) | 4 µg/mL (≈ 7.21 µM) | 2 µg/mL (≈ 3.6 µM)
CC1(C)CC[C@]2(C(=O)O)CC[C@]3(C)C(=CC[C@@H]4[C@@]5(C)CC[C@H](OC(=O)CCCC(=O)O)C(C)(C)[C@@H]5CC[C@]43C)[C@@H]2C1 | > 1020 µg/mL | > 64 µg/mL | 32 µg/mL (≈ 56.1 µM) | 64 µg/mL (≈ 112 µM) | 32 µg/mL (≈ 56.1 µM) | > 64 µg/mL | > 32 | 32 µg/mL (≈ 56.1 µM) | 32 µg/mL (≈ 56.1 µM) | 32 µg/mL (≈ 56.1 µM) | 32 µg/mL (≈ 56.1 µM)
OC(Cn1cncn1)(Cn1cncn1)c1ccc(F)cc1F [FLUCONAZOLE] | > 256 µg/mL |  |  |  |  |  |  |  | > 128 µg/mL |  | 
CC1(C)CC[C@]2(C(=O)O)CC[C@]3(C)C(=CC[C@@H]4[C@@]5(C)CC[C@H](OCC(O)CCCN)C(C)(C)[C@@H]5CC[C@]43C)[C@@H]2C1 (some centres undefined) | 32 µg/mL | > 64 µg/mL | 4 µg/mL (≈ 7.17 µM) | 8 µg/mL (≈ 14.3 µM) | 2 µg/mL (≈ 3.59 µM) | > 64 µg/mL | 8.01 | 4 µg/mL (≈ 7.17 µM) | 4 µg/mL (≈ 7.17 µM) | 8 µg/mL (≈ 14.3 µM) | 2 µg/mL (≈ 3.59 µM)
CC(=O)O[C@H]1CC[C@]2(C)[C@H]3CC=C4[C@@H]5CC(C)(C)CC[C@]5(C(=O)NCCCCNC(=N)N)CC[C@@]4(C)[C@]3(C)CC[C@H]2C1(C)C | 284 µg/mL | > 64 µg/mL | 2 µg/mL (≈ 3.27 µM) | 4 µg/mL (≈ 6.55 µM) | 2 µg/mL (≈ 3.27 µM) | > 64 µg/mL | 142 | 2 µg/mL (≈ 3.27 µM) | 2 µg/mL (≈ 3.27 µM) | 2 µg/mL (≈ 3.27 µM) | 2 µg/mL (≈ 3.27 µM)
C[C@@H]1[C@H](O)[C@@H](C)/C=C/C=C/C=C/C=C/C=C/C=C/C=C/[C@H](O[C@@H]2O[C@H](C)[C@@H](O)[C@H](N)[C@@H]2O)C[C@@H]2O[C@](O)(C[C@@H](O)C[C@@H](O)[C@H](O)CC[C@@H](O)C[C@@H](O)CC(=O)O[C@H]1C)C[C@H](O)[C@H]2C(=O)O [AMPHOTERICIN B] | 29.2 µg/mL |  |  |  |  |  | 29.2 |  | 1 µg/mL (≈ 1.08 µM) |  | 
CC1(C)CC[C@]2(C(=O)O)CC[C@]3(C)C(=CC[C@@H]4[C@@]5(C)CC[C@H](OCC(O)CCCCNC(=N)N)C(C)(C)[C@@H]5CC[C@]43C)[C@@H]2C1 (some centres undefined) | 660 µg/mL | > 64 µg/mL | 2 µg/mL (≈ 3.26 µM) | 8 µg/mL (≈ 13 µM) | 8 µg/mL (≈ 13 µM) | > 64 µg/mL | 330 | 8 µg/mL (≈ 13 µM) | 4 µg/mL (≈ 6.52 µM) | 4 µg/mL (≈ 6.52 µM) | 2 µg/mL (≈ 3.26 µM)
CC(=O)O[C@H]1CC[C@]2(C)[C@H]3CC=C4[C@@H]5CC(C)(C)CC[C@]5(C(=O)NCCCCN)CC[C@@]4(C)[C@]3(C)CC[C@H]2C1(C)C | 65.8 µg/mL | > 64 µg/mL | 4 µg/mL (≈ 7.03 µM) | 8 µg/mL (≈ 14.1 µM) | 8 µg/mL (≈ 14.1 µM) | > 64 µg/mL | 16.5 | 8 µg/mL (≈ 14.1 µM) | 4 µg/mL (≈ 7.03 µM) | 4 µg/mL (≈ 7.03 µM) | 2 µg/mL (≈ 3.52 µM)
CCCCCCCCC(=O)O[C@H]1CC[C@]2(C)[C@H]3CC=C4[C@@H]5CC(C)(C)CC[C@]5(C(=O)O)CC[C@@]4(C)[C@]3(C)CC[C@H]2C1(C)C |  | > 64 µg/mL | > 64 µg/mL | > 64 µg/mL | > 64 µg/mL | > 64 µg/mL |  | > 64 µg/mL | > 64 µg/mL | > 64 µg/mL | > 64 µg/mL
CC1(C)CC[C@]2(C(=O)O)CC[C@]3(C)C(=CC[C@@H]4[C@@]5(C)CC[C@H](OCC(O)CCCCCCCCNC(=N)N)C(C)(C)[C@@H]5CC[C@]43C)[C@@H]2C1 (some centres undefined) | 577 µg/mL | > 64 µg/mL | 8 µg/mL (≈ 11.9 µM) | 16 µg/mL (≈ 23.9 µM) | 8 µg/mL (≈ 11.9 µM) | > 64 µg/mL | 72.1 | 8 µg/mL (≈ 11.9 µM) | 16 µg/mL (≈ 23.9 µM) | 8 µg/mL (≈ 11.9 µM) | 4 µg/mL (≈ 5.97 µM)
CC(=O)O[C@H]1CC[C@]2(C)[C@H]3CC=C4[C@@H]5CC(C)(C)CC[C@]5(C(=O)NCc5ccoc5)CC[C@@]4(C)[C@]3(C)CC[C@H]2C1(C)C |  | > 64 µg/mL | > 64 µg/mL | > 64 µg/mL | > 64 µg/mL | > 64 µg/mL |  | > 64 µg/mL | > 64 µg/mL | > 64 µg/mL | > 64 µg/mL
CCCCCCCCCCCCC(=O)O[C@H]1CC[C@]2(C)[C@H]3CC=C4[C@@H]5CC(C)(C)CC[C@]5(C(=O)O)CC[C@@]4(C)[C@]3(C)CC[C@H]2C1(C)C |  | > 64 µg/mL | > 64 µg/mL | > 64 µg/mL | > 64 µg/mL | > 64 µg/mL |  | > 64 µg/mL | > 64 µg/mL | > 64 µg/mL | > 64 µg/mL
CC1(C)CC[C@]2(C(=O)O)CC[C@]3(C)C(=CC[C@@H]4[C@@]5(C)CC[C@H](OC(=O)CCC(=O)O)C(C)(C)[C@@H]5CC[C@]43C)[C@@H]2C1 [OLEANOLIC ACID 3-O-SUCCINATE] | > 1020 µg/mL | > 64 µg/mL | 16 µg/mL (≈ 28.7 µM) | 32 µg/mL (≈ 57.5 µM) | 8 µg/mL (≈ 14.4 µM) | > 64 µg/mL | > 64 | 16 µg/mL (≈ 28.7 µM) | 32 µg/mL (≈ 57.5 µM) | 32 µg/mL (≈ 57.5 µM) | 16 µg/mL (≈ 28.7 µM)
